Assay results from US9670193B2 (Novartis AG, priority 2011, dated 2017).

How the values were obtained:
Type in all cases: biochemical
Details in all cases: 5 μM substrate, 2 hours at room temperature
Human recombinant HDAC4 = Human recombinant HDAC4 (Homo sapiens (Human), UniProt P56524); test: HDAC4 assay (Test 1), fluorescence, acetyl-Gly-Ala-Lys(ε-trifluoroacetyl)-AMC substrate
Protocol: Test 1: HDAC4 Assay Description
(§1) Human recombinant HDAC4 was expressed in full length form (aa 2-1084) in Sf9 insect cells (obtained from ATCC) using baculovirus generated with Bac-to-Bac system (Invitrogen). Test compounds were serially diluted to reach final test concentrations from 0.000128 μM to 10 μM. HDAC4 and test compounds were incubated in 25 mM Tris buffer pH 8.0 containing 137 mM NaCl, 2.7 mM KCl, 1 mM MgCl2, 0.05% (w/v) bovine serum albumine and 0.005% (v/v) Triton-X-100 for 2 hours at room temperature in presence of 5 μM of acetyl-Gly-Ala-Lys(ε-trifluoroacetyl)-AMC (AMC=7-amino-4-methyl coumarin) in a final volume of 9 μl. Control wells with HDAC4 only (positive control) and without HDAC4 (negative control) were included on the microplate. Bovine trypsin (4.5 μl of a 300 nM solution) was added and the plate incubated for additional 15 minutes at room temperature. The plate was placed in a fluorescence microplate reader, and read at an excitation wavelength of 360 nm and an emission wavelength of 450 nm with a 10 nm bandpath. Fluorescence values for all wells containing HDAC4 (positive control and wells with test compound) were corrected by subtracting negative control fluorescence values, and IC50 values were calculated by fitting the dose-response curves to a 4-parameter logistic function.

[1] = biological target: Human recombinant full length HDAC1 (Homo sapiens (Human), UniProt Q13547); test: HDAC1 assay (Test 2), acetyl-Gly-Ala-Lys(acetyl)-AMC substrate
Chain of Human recombinant full length HDAC1 (Q13547 whole entry): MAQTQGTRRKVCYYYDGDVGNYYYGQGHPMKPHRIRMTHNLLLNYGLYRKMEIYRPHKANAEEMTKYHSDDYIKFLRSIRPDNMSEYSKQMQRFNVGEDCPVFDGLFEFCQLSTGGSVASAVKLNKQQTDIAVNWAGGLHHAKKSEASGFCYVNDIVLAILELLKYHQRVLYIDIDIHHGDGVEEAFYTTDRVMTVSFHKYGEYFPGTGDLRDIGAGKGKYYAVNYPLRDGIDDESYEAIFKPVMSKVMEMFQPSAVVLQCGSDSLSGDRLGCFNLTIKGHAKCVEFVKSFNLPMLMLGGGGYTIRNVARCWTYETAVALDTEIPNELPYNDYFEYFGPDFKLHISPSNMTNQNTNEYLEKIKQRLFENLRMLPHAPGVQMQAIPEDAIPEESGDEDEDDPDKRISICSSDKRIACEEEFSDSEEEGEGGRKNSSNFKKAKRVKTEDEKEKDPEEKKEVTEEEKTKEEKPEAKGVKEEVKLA
Protocol: as §1
Test 2: HDAC1 Assay Description
A similar assay procedure as described in Test 1 was used for HDAC1. Human recombinant full length HDAC1 expressed in a baculovirus expression system was purchased from BPS BioSciences (San Diego, Calif., U.S.A.). The substrate used in the […] assay was 5 μM of acetyl-Gly-Ala-Lys(acetyl)-AMC.

[2] = biological target: Human recombinant full length HDAC6 (Homo sapiens (Human), UniProt Q9UBN7); test: HDAC6 assay (Test 3), acetyl-Gly-Ala-Lys(acetyl)-AMC substrate
Chain of Human recombinant full length HDAC6 (Q9UBN7 whole entry): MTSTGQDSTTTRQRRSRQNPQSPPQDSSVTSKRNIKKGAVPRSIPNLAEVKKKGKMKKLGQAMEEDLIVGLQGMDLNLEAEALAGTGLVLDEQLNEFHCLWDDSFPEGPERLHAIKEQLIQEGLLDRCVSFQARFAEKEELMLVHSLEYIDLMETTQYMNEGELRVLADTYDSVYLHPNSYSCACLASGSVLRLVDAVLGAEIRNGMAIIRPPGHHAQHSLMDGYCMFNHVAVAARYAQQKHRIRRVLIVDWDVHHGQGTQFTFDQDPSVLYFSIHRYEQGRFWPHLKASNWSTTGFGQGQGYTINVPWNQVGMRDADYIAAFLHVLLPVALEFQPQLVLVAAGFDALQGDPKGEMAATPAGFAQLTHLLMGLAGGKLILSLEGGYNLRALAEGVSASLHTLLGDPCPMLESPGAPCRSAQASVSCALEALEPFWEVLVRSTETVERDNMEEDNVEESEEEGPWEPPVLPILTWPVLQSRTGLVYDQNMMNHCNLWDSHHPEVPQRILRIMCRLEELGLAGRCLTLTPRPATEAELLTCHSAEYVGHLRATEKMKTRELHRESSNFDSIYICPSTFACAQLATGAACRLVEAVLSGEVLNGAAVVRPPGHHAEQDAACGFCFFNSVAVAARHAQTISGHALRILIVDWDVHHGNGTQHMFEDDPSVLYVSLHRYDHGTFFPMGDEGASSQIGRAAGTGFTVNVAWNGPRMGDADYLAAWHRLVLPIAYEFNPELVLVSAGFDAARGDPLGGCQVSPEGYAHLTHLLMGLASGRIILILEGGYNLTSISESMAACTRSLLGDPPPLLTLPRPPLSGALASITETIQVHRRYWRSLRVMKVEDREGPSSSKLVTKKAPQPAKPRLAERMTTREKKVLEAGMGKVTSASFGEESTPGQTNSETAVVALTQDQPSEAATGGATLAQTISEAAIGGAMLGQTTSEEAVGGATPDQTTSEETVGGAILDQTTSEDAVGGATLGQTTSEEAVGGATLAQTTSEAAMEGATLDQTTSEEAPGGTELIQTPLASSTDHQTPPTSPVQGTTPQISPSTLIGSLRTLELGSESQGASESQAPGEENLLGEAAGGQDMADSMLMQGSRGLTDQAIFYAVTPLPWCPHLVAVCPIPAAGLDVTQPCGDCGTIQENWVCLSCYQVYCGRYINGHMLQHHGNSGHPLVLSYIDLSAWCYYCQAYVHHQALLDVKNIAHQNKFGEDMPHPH
Protocol: as §1
Test 3: HDAC6 Assay Description
A similar assay procedure as described in Test 1 was used for HDAC6. Human recombinant full length HDAC6 expressed in a baculovirus expression system was purchased from BPS BioSciences (San Diego, Calif., U.S.A.). The substrate used in the […] assay was 5 μM of acetyl-Gly-Ala-Lys (acetyl)-AMC.

Chain of Human recombinant HDAC4 (P56524 2-1084): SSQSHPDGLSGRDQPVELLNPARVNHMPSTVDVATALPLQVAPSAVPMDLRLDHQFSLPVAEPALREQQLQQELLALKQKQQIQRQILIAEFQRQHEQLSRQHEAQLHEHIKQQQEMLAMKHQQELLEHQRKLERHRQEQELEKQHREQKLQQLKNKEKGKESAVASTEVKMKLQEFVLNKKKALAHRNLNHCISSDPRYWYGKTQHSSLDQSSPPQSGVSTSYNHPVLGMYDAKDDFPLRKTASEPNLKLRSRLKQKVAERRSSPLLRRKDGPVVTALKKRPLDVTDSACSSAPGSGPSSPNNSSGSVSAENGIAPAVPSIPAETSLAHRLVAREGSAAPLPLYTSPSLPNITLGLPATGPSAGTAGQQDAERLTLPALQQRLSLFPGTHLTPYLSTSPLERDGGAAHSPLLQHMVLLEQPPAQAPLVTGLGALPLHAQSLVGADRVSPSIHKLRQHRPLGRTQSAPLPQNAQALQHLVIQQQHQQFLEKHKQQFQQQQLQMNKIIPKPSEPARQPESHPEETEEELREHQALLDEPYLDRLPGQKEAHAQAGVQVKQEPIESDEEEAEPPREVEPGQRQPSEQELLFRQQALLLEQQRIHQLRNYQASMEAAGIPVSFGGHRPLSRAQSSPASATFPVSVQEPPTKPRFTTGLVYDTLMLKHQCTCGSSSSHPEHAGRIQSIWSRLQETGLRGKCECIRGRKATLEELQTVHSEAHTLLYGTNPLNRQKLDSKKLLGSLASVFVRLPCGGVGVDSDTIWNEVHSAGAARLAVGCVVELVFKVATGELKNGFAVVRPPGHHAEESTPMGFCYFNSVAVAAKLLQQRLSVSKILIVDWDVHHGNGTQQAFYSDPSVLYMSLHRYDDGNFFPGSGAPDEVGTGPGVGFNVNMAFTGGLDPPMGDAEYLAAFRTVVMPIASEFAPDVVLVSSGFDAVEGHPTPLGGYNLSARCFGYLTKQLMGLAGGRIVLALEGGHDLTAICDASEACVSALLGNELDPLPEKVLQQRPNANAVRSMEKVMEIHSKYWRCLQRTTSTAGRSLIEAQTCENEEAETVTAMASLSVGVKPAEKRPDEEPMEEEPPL

Compound	IC50 (Human recombinant HDAC4) [nM]	IC50 [1] [nM]	IC50 [2] [nM]
FC(F)(F)c1nc(-c2ccc(NCc3cccnc3)nc2)no1 [Example 30, N-(pyridin-3-ylmethyl)-5-(5-(trifluoromethyl)-1,2,4-oxadiazol-3-yl)pyridin-2-amine]	79	6100	1800
FC(F)(F)c1nc(-c2ccc(NCc3ccncc3)nc2)no1 [Example 31, N-(pyridin-4-ylmethyl)-5-(5-(trifluoromethyl)-1,2,4-oxadiazol-3-yl)pyridin-2-amine]	41	4500	1600
Cc1ccc(CNc2ccc(-c3noc(C(F)(F)F)n3)cn2)cn1 [Example 32, N-((6-methylpyridin-3-yl)methyl)-5-(5-(trifluoromethyl)-1,2,4-oxadiazol-3-yl)pyridin-2-amine]	63	2400	770
FC(F)(F)c1nc(-c2cnc(NCc3ccncc3)c(Cl)c2)no1 [Example 35, 3-chloro-N-(pyridin-4-ylmethyl)-5-(5-(trifluoromethyl)-1,2,4-oxadiazol-3-yl)pyridin-2-amine]	11	1100	1800
FC(F)(F)c1nc(-c2cnc(NCc3cccnc3)c(Cl)c2)no1 [Example 37, 3-chloro-N-(pyridin-3-ylmethyl)-5-(5-(trifluoromethyl)-1,2,4-oxadiazol-3-yl)pyridin-2-amine]	19	1200	2000
Cc1ccc(CNc2ncc(-c3noc(C(F)(F)F)n3)cc2Cl)cn1 [Example 38, 3-Chloro-N-((6-methylpyridin-3-yl)methyl)-5-(5-(trifluoromethyl)-1,2,4-oxadiazol-3-yl)pyridin-2-amine]	21	1400	1550
FC(F)(F)c1nc(-c2cnc(NCc3ccccn3)c(Cl)c2)no1 [Example 39, 3-chloro-N-(pyridin-2-ylmethyl)-5-(5-(trifluoromethyl)-1,2,4-oxadiazol-3-yl)pyridin-2-amine]	37	2500	1900
FC(F)(F)c1nc(-c2ccc(NCc3ccccc3)nn2)no1 [Example 40, N-benzyl-6-(5-(trifluoromethyl)-1,2,4-oxadiazol-3-yl)pyridazin-3-amine]	200	7900	840
FC(F)(F)c1nc(-c2ncc(NCc3ccncc3)cn2)no1 [Example 43, N-(Pyridin-4-ylmethyl)-2-(5-(trifluoromethyl)-1,2,4-oxadiazol-3-yl)pyrimidin-5-amine]	190	4700	1100

Second part, the compound after the results:

IC50 (Human recombinant HDAC4) [nM]	IC50 [1] [nM]	IC50 [2] [nM]	Compound
93	> 10000	> 10000	FC(F)(F)c1nc(-c2cnc(NCc3ccccc3)c(Cl)c2)no1 [Example 33, N-benzyl-3-chloro-5-(5-(trifluoromethyl)-1,2,4-oxadiazol-3-yl)pyridin-2-amine]
47	6300	4500	C[C@@H](Nc1ncc(-c2noc(C(F)(F)F)n2)cc1Cl)c1ccccc1 [Example 34, (R)-3-chloro-N-(1-phenylethyl)-5-(5-(trifluoromethyl)-1,2,4-oxadiazol-3-yl)pyridin-2-amine]
6.4	860	1100	CC(Nc1ncc(-c2noc(C(F)(F)F)n2)cc1Cl)c1ccncc1 (stereo not drawn) [Example 36, 3-chloro-N-(1-(pyridin-4-yl)ethyl)-5-(5-(trifluoromethyl)-1,2,4-oxadiazol-3-yl)pyridin-2-amine]
60	4000	1300	C[C@@H](Nc1cnc(-c2noc(C(F)(F)F)n2)nc1)c1ccccc1 [Example 41, (R)—N-(1-Phenylethyl)-2-(5-(trifluoromethyl)-1,2,4-oxadiazol-3-yl)pyrimidin-5-amine]
5000	> 10000	1900	C[C@H](Nc1cnc(-c2noc(C(F)(F)F)n2)nc1)c1ccccc1 [Example 42, (S)—N-(1-Phenylethyl)-2-(5-(trifluoromethyl)-1,2,4-oxadiazol-3-yl)pyrimidin-5-amine]
